Test results published in patent publication US20250361241A1, “HPK1 INHIBITOR AND MEDICAL USE THEREOF” (Betta Pharmaceuticals Co., Ltd., priority 2022, published 2025).

Assays:
HPK1 = HPK1 (Homo sapiens (Human), UniProt Q92918); assay: HPK1 enzyme activity detection (1 mM ATP system), ADP-Glo with MBP substrate, Pharmacological Experiment 2; assay type: biochemical
Experimental: (§1) Pharmacological Experiment 2: […] The test compound was serially diluted using DMSO to 200 times the detection concentration. […] Centrifuge at 1000×g for 30 seconds and incubate at 25° C. for 15 minutes. • (5) Adding ATP and substrate: Add 2 μL of 2×ATP-MBP solution to the 384-well plate and centrifuge at 1000×g for 30 seconds. Seal the plate with a sealing film and incubate at 25° C. for 60 minutes. • (6) Add ADP-Glo reagent: Add 4 μL ADP-Glo reagent (Promega, V9103) to the 384-well plate, centrifuge at 1000×g for 30 seconds, and incubate at 25° C. for 60 minutes. • (7) Detection of luminescent signal; Add 8 μL of luminescent detection reagent (Promega, V9103) to a 384-well plate, centrifuge at 1000×g for 30 seconds, and incubate at 25° C. for 60 minutes. The chemiluminescent signal was read using a BMG instrument. • (8) Calculation of percentage inhibition rate: […] See Table 2 for the enzymatic IC 50 data of the example compounds on HPK1.

GLK = GLK (Homo sapiens (Human), UniProt Q8IVH8); assay: GLK kinase assay (1 mM ATP system), ADP-Glo; assay type: biochemical
Experimental: as §1, with “Solution” for “Pharmacological Experiment 2:”, “Add” for “Adding”, “signal:” for “signal;”, “microplate reader.” for “instrument.”, “GLK kinase IC50” for “enzymatic IC 50”

Sequence of GLK (Q8IVH8 whole entry, species assumed): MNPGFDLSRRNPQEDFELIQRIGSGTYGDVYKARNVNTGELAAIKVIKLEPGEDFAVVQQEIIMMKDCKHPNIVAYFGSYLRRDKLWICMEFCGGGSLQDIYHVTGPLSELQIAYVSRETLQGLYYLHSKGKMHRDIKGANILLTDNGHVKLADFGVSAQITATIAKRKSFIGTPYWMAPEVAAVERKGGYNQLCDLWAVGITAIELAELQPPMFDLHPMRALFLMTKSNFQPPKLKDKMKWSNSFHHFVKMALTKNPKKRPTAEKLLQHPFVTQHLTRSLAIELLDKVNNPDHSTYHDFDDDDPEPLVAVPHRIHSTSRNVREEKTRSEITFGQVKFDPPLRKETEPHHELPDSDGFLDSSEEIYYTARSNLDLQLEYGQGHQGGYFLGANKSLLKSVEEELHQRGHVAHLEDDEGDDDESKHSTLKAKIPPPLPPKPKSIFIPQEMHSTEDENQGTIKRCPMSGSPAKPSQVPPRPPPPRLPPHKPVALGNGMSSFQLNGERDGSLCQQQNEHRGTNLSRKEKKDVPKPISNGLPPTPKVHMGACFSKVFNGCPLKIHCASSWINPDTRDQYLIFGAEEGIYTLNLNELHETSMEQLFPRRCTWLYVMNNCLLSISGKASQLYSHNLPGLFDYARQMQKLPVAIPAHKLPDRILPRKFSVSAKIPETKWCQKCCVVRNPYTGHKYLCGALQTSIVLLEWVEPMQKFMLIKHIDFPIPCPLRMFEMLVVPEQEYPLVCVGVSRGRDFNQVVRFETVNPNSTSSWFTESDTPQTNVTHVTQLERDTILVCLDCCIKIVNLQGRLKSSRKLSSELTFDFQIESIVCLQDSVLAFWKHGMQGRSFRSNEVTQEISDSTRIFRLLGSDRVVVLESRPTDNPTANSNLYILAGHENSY
Sequence of HPK1 (Q92918 whole entry, species assumed): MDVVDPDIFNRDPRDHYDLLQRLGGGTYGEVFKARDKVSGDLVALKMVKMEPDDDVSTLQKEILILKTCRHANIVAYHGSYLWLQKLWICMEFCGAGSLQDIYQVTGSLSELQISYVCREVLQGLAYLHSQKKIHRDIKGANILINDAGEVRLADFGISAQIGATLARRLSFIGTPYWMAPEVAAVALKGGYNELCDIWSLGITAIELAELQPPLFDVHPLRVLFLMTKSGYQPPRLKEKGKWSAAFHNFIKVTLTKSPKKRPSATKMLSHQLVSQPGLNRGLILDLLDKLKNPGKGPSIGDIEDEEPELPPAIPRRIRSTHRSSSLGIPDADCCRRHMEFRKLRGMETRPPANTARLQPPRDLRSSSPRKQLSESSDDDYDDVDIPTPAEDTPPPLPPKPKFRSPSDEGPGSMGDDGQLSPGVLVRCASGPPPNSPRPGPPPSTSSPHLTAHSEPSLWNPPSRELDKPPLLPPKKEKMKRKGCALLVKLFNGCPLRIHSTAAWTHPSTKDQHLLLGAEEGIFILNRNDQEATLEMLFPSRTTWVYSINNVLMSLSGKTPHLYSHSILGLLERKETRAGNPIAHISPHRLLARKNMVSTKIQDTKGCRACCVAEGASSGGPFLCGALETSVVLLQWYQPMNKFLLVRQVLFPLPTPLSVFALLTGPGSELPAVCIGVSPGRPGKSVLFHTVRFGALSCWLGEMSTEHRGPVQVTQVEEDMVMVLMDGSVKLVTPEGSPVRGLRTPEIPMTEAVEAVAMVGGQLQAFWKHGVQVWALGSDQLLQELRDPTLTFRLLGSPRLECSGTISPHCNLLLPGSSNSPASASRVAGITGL

| IC50 (HPK1) | IC50 (GLK) | Structure (SMILES) |
| --- | --- | --- |
| 2.67 nM | 317 nM | O=C1NCc2c(-c3cnc4cc(F)ccn34)ccc(Nc3ccc4c(n3)C(N3C[C@H]5C[C@@H]3CO5)CC43CCOCC3)c21 (stereo partly drawn) [Compound 110] |
| 4.52 nM | 596 nM | CN(C)C1CCC2(CCOCC2)c2ccc(Nc3ccc(-c4cnn5cc(F)ccc45)c4c3C(=O)NC4)nc21 (stereo not drawn) [Compound 32] |
| 1.51 nM | 30.3 nM | Cc1cc(Nc2ccc(-c3cnc4ccccn34)c3c2C(=O)NC3)nc2c1C1(CCOCC1)C[C@H]2N(C)C [Compound 47] |
| 7.42 nM | > 3000 nM | O=C1NCc2c(-c3cnc4cc(F)ccn34)ccc(Nc3ccc4c(n3)C(N3CCC(F)CC3)CC43CCOCC3)c21 (stereo not drawn) [Compound 144] |
| 11.8 nM | 971 nM | CN(C)C1CC2(CCOCC2)c2ccc(Nc3ccc(-c4cnc5cc(F)c(Cl)cn45)c4c3C(=O)NC4)nc21 (stereo not drawn) [Compound 46, 4-(6-CHLORO-7-FLUOROIMIDAZO[1,2-A]PYRIDIN-3-YL)-7-((7-(DIMETHYLAMINO)-2′,3′,5′,6,6′,7-HEXAHYDRO SPIRO[B]PYRIDIN-5,4′-PYRAN]-2-YL)AMINO)ISOINDOLIN-1-ONE] |
| 5.58 nM | 598 nM | O=C1NCc2c(-c3cnc4cc(F)ccn34)ccc(Nc3ccc4c(n3)C(N3CCCCC3)CC43CCOCC3)c21 (stereo not drawn) [Compound 90] |
| 25.3 nM | 1370 nM | O=C1NCc2c(-c3cnc4n3CCCC4)ccc(Nc3ccc4c(n3)CCCC43CCOCC3)c21 [Compound 167] |
| 10.9 nM | 646 nM | O=C1NCc2c(-c3cnn4c3CCCC4)ccc(Nc3ccc4c(n3)CNCC43CCOCC3)c21 [Compound 154] |
| 8.47 nM | 3200 nM | CN(C)C1COC2(CCC2)c2ccc(Nc3ccc(-c4cnc5cc(F)ccn45)c4c3C(=O)NC4)nc21 (stereo not drawn) [Compound 173] |
| 1.98 nM | 9.77 nM | Cc1cc(Nc2ccc(-c3cnn4cc(F)ccc34)c3c2C(=O)NC3)nc2c1C1(CCOCC1)C[C@H]2N(C)C [Compound 29] |
| 8.85 nM | 970 nM | CC(C)NC1CC2(CCOCC2)c2ccc(Nc3ccc(-c4cnc5cc(OC(F)F)ccn45)c4c3C(=O)NC4)nc21 (stereo not drawn) [Compound 179] |
| 5.29 nM | 208 nM | O=C1NCc2c(-c3cnc4cc(F)ccn34)ccc(Nc3ccc4c(n3)C(N3CC5(COC5)C3)CC43CCOCC3)c21 (stereo not drawn) [Compound 88] |
| 3.55 nM | 286 nM | CO[C@H]1CCN(C2CC3(CCOCC3)c3ccc(Nc4ccc(-c5cnc6cc(F)ccn56)c5c4C(=O)NC5)nc32)C1 (stereo partly drawn) [Compound 76] |
| 2.99 nM | 188 nM | COC1(C)CN(C2CC3(CCOCC3)c3ccc(Nc4ccc(-c5cnc6cc(F)ccn56)c5c4C(=O)NC5)nc32)C1 (stereo not drawn) [Compound 70] |
| 3.46 nM | 697 nM | COCCNC1CC2(CCOCC2)c2ccc(Nc3ccc(-c4cnc5cc(F)ccn45)c4c3C(=O)NC4)nc21 (stereo not drawn) [Compound 106] |
| 2.14 nM | 123 nM | CNC1CC2(CCOCC2)c2ccc(Nc3ccc(-c4cnc5cc(F)ccn45)c4c3C(=O)NC4)nc21 (stereo not drawn) [Compound 60, 4-(7-FLUOROIMIDAZO[1,2-A]PYRIDIN-3-YL)-7-((7-(METHYLAMINO)-2′,3′,5′,6,6′,7-HEXAHYDROSPIRO[B]PYRIDIN-5,4′-PYRAN]-2-YL)AMINO)ISOINDOL-1-ONE] |
| 8.47 nM | 2760 nM | CCN1Cc2nc(Nc3ccc(-c4cnc5cc(F)ccn45)c4c3C(=O)NC4)ccc2C2(CCOCC2)C1 [Compound 124] |
| 12.4 nM | > 30000 nM | O=C1NCc2c(-c3cnc4cc(F)ccn34)ccc(Nc3ccc4c(n3)C(N3CCC(F)(F)CC3)CC43CCOCC3)c21 (stereo not drawn) [Compound 98] |
| 3.48 nM | 206 nM | CO[C@@H]1CCN(C2CC3(CCOCC3)c3ccc(Nc4ccc(-c5cnc6cc(F)ccn56)c5c4C(=O)NC5)nc32)C1 (stereo partly drawn) [Compound 73] |
| 3.76 nM | 70.7 nM | CN(C)C1CC2(CCOCC2)c2ccc(Nc3ccc(-c4cnc5cc(CO)ccn45)c4c3C(=O)NC4)nc21 (stereo not drawn) [Compound 41, 7-((7-(DIMETHYLAMINO)-2′,3′,5′,6,6′,7-HEXAHYDROSPIRO[B]PYRIDIN-5,4′-PYRAN]-2-YL)AMINO)-4-(7-(HYDROXYMETHYL)IMIDAZO[1,2-A]PYRIDIN-3-YL)ISOINDOL-1-ONE] |
| 5.04 nM | 562 nM | O=C1NCc2c(-c3cnc4cc(F)ccn34)ccc(Nc3ccc4c(n3)C(NCC3CC3)CC43CCOCC3)c21 (stereo not drawn) [Compound 117] |
| 8.18 nM | 779 nM | CN(C)C1CCC2(CCOCC2)c2ccc(Nc3ccc(-c4ccnc5c4ccn5C)c4c3C(=O)NC4)nc21 (stereo not drawn) [Compound 34] |
| 2.92 nM | 232 nM | CN(C)C1CC2(CCOCC2)c2ccc(Nc3ccc(-c4cnn5cccnc45)c4c3C(=O)NC4)nc21 (stereo not drawn) [Compound 38] |
| 11 nM | > 3000 nM | O=C1NCc2c(-c3cnc4cc(F)ccn34)ccc(Nc3ccc4c(n3)CN(CC3CC3)CC43CCOCC3)c21 [Compound 120] |
| 4.22 nM | 657 nM | CN(C)C1CC2(CCOCC2)c2ccc(Nc3ccc(-c4cnc5c(F)c(F)ccn45)c4c3C(=O)NC4)nc21 (stereo not drawn) [Compound 43, 4-(7,8-DIFLUOROIMIDAZO[1,2-A]PYRIDIN-3-YL)-7-((7-(DIMETHYLAMINO)-2′,3′,5′,6,6′,7-HEXAHYDROSPIRO [B]PYRIDIN-5,4′-PYRAN]-2-YL)AMINO)ISOINDOL-1-ONE] |
| 86.2 nM | > 30000 nM | CN1CCN(C2CC3(CCOCC3)c3ccc(Nc4ccc(-c5cnc6cc(F)ccn56)c5c4C(=O)NC5)nc32)CC1 (stereo not drawn) [Compound 91] |
| 27 nM | > 25000 nM | CN(C1CCOCC1)C1CC2(CCOCC2)c2ccc(Nc3ccc(-c4cnc5cc(F)ccn45)c4c3C(=O)NC4)nc21 (stereo not drawn) [Compound 93] |
| 9.27 nM | 4530 nM | COC1(C)CCN(C2CC3(CCOCC3)c3ccc(Nc4ccc(-c5cnc6cc(F)ccn56)c5c4C(=O)NC5)nc32)CC1 (stereo not drawn) [Compound 94] |
| 5.41 nM |  | CN(C)C1CC2(CCOCC2)c2ccc(Nc3ccc(-c4cnc5c(F)cccn45)c4c3C(=O)NC4)nc21 (stereo not drawn) [Compound 159] |

| Structure (SMILES) | IC50 (HPK1) | IC50 (GLK) |
| --- | --- | --- |
| CN(C)C1CC2(CCOCC2)c2ccc(Nc3ccc(-c4cnc5cc(N)ccn45)c4c3C(=O)NC4)nc21 (stereo not drawn) [Compound 174, 4-(7-AMINOIMIDAZO[1,2-A]PYRIDIN-3-YL)-7-((7-(DIMETHYLAMINO)-2′,3′,5′,6,6′,7-HEXAHYDROSPIRO[CY CLOPENTADIENYL[B]PYRIDINE-54′-PYRAN]-2-YL)AMINO)ISOINDOL-1-ONE] | 19.2 nM | 566 nM |
| COc1ccn2c(-c3ccc(Nc4ccc5c(n4)C(N(C)C)CC54CCOC4)c4c3CNC4=O)cnc2c1 (stereo not drawn) [Compound 180, 7-((7-(DIMETHYLAMINO)-4′,5′,6,7-TETRAHYDRO-2′H-SPIRO[CYCLOPENTADIENYL[B]PYRIDINE-5,3′-FURAN]-2-YL)AMINO)-4-(7-METHOXYIMIDAZO[1,2-A]PYRIDIN-3-YL)ISOINDOLIN-1-ONE] | 13.9 nM | 3910 nM |
| O=C1NCc2c(-c3cnc4cc(OC(F)F)ccn34)ccc(Nc3ccc4c(n3)C(NC3CC3)CC43CCOCC3)c21 (stereo not drawn) [Compound 178, 7-((7-(CYCLOPROPYLAMINO)-2′,3′,5′,6,6′,7-HEXAHYDROSPIRO[CYCLOPENTADIENYL[B]PYRIDINE-54′-PYRAN]-2-YL)AMINO)-4-(7-(DIFLUOROMETHOXY)IMIDAZO[1,2-A]PYRIDIN-3-YL)ISOINDOLIN-1-ONE] | 13.7 nM | 1240 nM |
| O=C1NCc2c(-c3cnc4cc(OC(F)F)ccn34)ccc(Nc3ccc4c(n3)C(N3CCCC3)CC43CCOCC3)c21 (stereo not drawn) [Compound 169, 4-(7-(DIFLUOROMETHOXY)IMIDAZO[1,2-A]PYRIDIN-3-YL)-7-((7-(PYRROLIDIN-1-YL)-2′,3′,5′,6,6′,7-HEXAHYDROSPIRO[CYCLOPENTA[B]PYRIDINE-5,4′-PYRAN]-2-YL)AMINO)ISOINDOL-1-ONE] | 9.19 nM | 223 nM |
| N#Cc1ccn2c(-c3ccc(Nc4ccc5c(n4)C(N4CCCC4)CC54CCOCC4)c4c3CNC4=O)cnc2c1 (stereo not drawn) [Compound 168, 3-(1-OXO-7-((7-(PYRROLIDIN-1-YL)-2′,3′,5′,6,6′,7-HEXAHYDROSPIRO[CYCLOPENTA[B]PYRIDINE-5,4′-PYRAN]-2-YL)AMINO)ISOINDOL-4-YL)IMIDAZO[1,2-A]PYRIDINE-7-CARBONITRILE] | 5.27 nM | 289 nM |
| CN(C)C1CC2(CCOCC2)c2ccc(Nc3ccc(-c4cnc5n4CCOC5)c4c3C(=O)NC4)nc21 (stereo not drawn) [Compound 165, 4-(5,6-DIHYDRO-8H-IMIDAZO[2,1-C][1,4]OXAZIN-3-YL)-7-((7-(DIMETHYLAMINO)-2′,3′,5′,6,6′,7-HEXAHYDROSPIRO[CYCLOPENTA[B]PYRIDINE-5,4′-PYRAN]-2-YL)AMINO)ISOINDOL-1-ONE] | 24.9 nM | 1190 nM |
